Assays:
[1] = test system: human iPSC-derived cardiomyocytes; assay: PCA and MANOVA of beat parameters after chronic exposure; format: cell-based; settings: 0.1 µM, relative to all DMSO time points
Experimental: (§1) For mechanism-of-action classification and the cardiotoxicity assessment of doxorubicin, a one-way multivariate analysis of variance (MANOVA) was employed, using principal component (PC)1 and PC2 scores as dependent variables to evaluate significant differences between drug mechanism groups. Statistical significance was determined at P < 0.05.
PCA was conducted to integrate multiple parameter changes into a comprehensive index of cardiotoxicity. The PCA included 6 selected parameters: IBI, Amplitude, Amplitude STV, Area, Velocity, and Velocity STV (Table 7). The first 2 PCs accounted for a cumulative contribution of 69.4%. […] For statistical analysis of cardiotoxicity across time points, PCA plots were categorized into 15 groups based on concentration and exposure duration. MANOVA was performed to compare each group against the DMSO 0.5 h reference (Table 8). No significant differences were detected among DMSO time points.

mouse cardiomyocytes = test system: mouse cardiomyocytes; design: method as in Lin et al. 2024; settings: ref Lin et al. 2024; cited from earlier work
rat cardiomyocytes = settings: ref Sag et al. 2011, Ikeda et al. 2019; cited from earlier work
monolayer hiPSC-CMs = settings: ref Maddah et al. 2020; cited from earlier work
[2] = test system: Engineered heart tissues derived from human iPSCs; design: method as in Arefin et al. 2023; settings: ref Arefin et al. 2023, cited from earlier work
hiPSC-CMs = assay: Conventional MEA, chronic exposure; format: cell-based, human; settings: 0.1 μM
Experimental: To enable comparison with the UHD-CMOS-MEA recordings, conventional extracellular field potential recordings were performed using 16-electrode MEA plates on a commercially available MEA system (Axion Maestro, Axion Biosystems), in accordance with the general principles of the CiPA initiative. hiPSC-CMs were cultured and maintained on the MEA plates under spontaneous beating conditions at 37 °C. Recordings were conducted after 10 to 14 DIV, and data acquisition and beat detection were performed using the built-in algorithms of the AxIS software (Axion Biosystems), without the use of external pacing. […] Each compound was applied under acute exposure conditions, and field potential recordings were obtained for 30 min following drug administration.
Furthermore, a direct comparison was conducted between the UHD-CMOS-MEA and conventional MEA systems under chronic exposure to 0.1 μM doxorubicin.

[3] = test system: human iPSC-derived cardiomyocytes; assay: FPI with UHD-CMOS-MEA, chronic exposure up to 96 h; format: cell-based
Experimental: Recordings were performed at a sampling rate of 2 kHz, with a 2-min recording duration per condition. Data acquisition was controlled via proprietary software (Sony Semiconductor Solutions), and all raw signals were stored for offline analysis. All experiments were conducted in a humidified environment at 37 °C with 5% CO2, ensuring physiological conditions during both drug exposure and recording.
Spikes from hiPSC-derived cardiomyocytes were initially detected at each electrode using a voltage threshold of ±100 µV via BinViewer software (SCREEN Holdings Co., Ltd, Japan). The resulting spike data were then processed using a custom MATLAB (MathWorks, Natick, MA) script to perform beat detection. Firing count histograms were generated using a bin size of 0.5 ms, and peak detection within these histograms identified the timing and propagation duration of beats across the electrode array. For each electrode, the maximum spike amplitude and its corresponding peak timing were calculated to generate heat maps of field potential amplitude and activation timing.
as §1
To validate the chronic cardiotoxicity assessment using CMOS-MEA measurements, FPI was performed following long-term exposure to doxorubicin.

[4] = 0.1 μM, prolonged exposure (48 h)

## COc1cccc2c1C(=O)c1c(O)c3c(c(O)c1C2=O)C[C@@](O)(C(=O)CO)C[C@@H]3O[C@H]1C[C@H](N)[C@H](O)[C@H](C)O1 [Doxorubicin]
[1]
  MANOVA of PCA groups vs DMSO: significant differences were observed after 24 h
Mouse cardiomyocytes
  concentration giving impaired Ca^2+ handling and reduced contractility: 1000 nM
Rat cardiomyocytes
  concentrations giving Ca^2+ handling abnormalities, apoptosis and contractile dysfunction: only at micromolar concentrations
Monolayer hiPSC-CMs
  concentration at which structural changes were detected: exceeding 0.3 μM
[2]; 125 or 500 nM
  effect on contractile force: no observable effects
[2]; after 48 h of exposure
  concentration giving reduced contractile force: 1000 nM
hiPSC-CMs
  exposure time at which a reduction in spike amplitude began to be detected: 48 h
[3]; 0.03 µM, after 24 h
  beat area: significant decreases
  peak potential: significant decreases
[3]; 0.03 µM, chronic exposure
  beat rate: did not significantly alter
[3]; 0.1 µM
  changes in conventional parameters such as beat rate and IBI: evident only after 72 h
[3]; 0.1 μM, CMOS-MEA
  exposure time at which a decline in conduction velocity was detected: 24 h
[3]; 0.1 µM, beginning at 48 h
  beat area: reductions
  peak potential: reductions
[3]; [4]
  conduction velocity: decrease
  temporal variability metrics (CV and STV): increase
[3]; 0.1 µM, within 0.5 h
  STV of peak potential: decreased
[3]; within 24 h, UHD-CMOS-MEA
  concentration at which cardiotoxicity was detected: 30 nM

From PMC12646587, “Advanced cardiotoxicity profiling using field potential imaging with UHD-CMOS-MEA in human iPSC-derived cardiomyocytes” (Toxicological Sciences, 2025)
